Here are results for 33 compounds from patent US8685977B2, “Chemical compounds” (Pfizer Limited, priority 2010, dated 2014).

Structures are written as SMILES.

T1 sequence (Q15858 whole entry): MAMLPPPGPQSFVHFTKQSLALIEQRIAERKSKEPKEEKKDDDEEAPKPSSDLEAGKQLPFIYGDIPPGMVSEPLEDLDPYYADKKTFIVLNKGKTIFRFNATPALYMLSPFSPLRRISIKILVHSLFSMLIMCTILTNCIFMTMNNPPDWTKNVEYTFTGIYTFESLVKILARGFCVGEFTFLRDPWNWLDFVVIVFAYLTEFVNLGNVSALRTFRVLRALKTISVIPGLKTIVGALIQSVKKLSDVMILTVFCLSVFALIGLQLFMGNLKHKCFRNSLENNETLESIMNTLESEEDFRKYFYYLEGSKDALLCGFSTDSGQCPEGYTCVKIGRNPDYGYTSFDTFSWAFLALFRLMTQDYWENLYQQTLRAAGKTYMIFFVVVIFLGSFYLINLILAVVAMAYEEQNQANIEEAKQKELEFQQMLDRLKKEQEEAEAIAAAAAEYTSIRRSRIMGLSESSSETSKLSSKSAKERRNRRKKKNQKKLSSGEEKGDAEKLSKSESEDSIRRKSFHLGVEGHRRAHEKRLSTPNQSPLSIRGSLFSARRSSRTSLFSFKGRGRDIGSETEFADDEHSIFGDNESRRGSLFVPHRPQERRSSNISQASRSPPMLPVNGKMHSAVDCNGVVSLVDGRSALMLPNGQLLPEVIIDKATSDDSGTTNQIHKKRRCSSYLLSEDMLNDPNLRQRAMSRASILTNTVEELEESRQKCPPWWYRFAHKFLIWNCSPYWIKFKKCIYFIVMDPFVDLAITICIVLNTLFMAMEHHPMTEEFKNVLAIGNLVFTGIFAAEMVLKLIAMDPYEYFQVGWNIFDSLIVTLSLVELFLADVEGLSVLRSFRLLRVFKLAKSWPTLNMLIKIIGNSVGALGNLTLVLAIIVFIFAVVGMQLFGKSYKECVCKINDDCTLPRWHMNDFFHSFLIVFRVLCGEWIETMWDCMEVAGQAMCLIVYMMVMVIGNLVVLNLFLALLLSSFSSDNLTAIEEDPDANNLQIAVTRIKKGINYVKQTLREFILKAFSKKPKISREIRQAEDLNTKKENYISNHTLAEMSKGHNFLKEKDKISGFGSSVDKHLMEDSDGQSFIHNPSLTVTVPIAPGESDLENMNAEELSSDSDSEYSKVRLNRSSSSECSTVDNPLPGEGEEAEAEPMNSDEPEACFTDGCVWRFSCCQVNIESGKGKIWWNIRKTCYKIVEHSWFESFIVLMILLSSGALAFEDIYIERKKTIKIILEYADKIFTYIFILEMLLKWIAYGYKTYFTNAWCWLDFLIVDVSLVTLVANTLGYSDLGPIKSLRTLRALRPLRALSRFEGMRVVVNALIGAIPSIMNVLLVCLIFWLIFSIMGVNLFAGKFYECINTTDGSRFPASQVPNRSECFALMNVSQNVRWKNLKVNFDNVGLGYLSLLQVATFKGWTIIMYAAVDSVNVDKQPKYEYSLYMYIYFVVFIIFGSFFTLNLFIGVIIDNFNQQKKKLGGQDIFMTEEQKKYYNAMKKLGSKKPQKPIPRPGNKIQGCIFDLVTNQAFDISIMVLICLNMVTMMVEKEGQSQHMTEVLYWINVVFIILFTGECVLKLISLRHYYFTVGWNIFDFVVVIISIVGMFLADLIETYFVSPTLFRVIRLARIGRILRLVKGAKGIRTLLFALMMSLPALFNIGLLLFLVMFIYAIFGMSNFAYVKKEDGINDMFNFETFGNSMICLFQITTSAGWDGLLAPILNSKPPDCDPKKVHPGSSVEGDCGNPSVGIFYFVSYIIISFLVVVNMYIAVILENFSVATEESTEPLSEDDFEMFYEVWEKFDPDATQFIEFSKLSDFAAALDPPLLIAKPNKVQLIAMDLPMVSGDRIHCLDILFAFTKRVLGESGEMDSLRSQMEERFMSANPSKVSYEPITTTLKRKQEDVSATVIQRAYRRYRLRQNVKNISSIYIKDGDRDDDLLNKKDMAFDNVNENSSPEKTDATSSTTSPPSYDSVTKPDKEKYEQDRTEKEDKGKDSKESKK

This test concerns the target T1, Nav1.7 (or SCN9A) channel (Homo sapiens, UniProt Q15858).
T1 construct: expressed in transfected cells
The test can be described thus: Nav1.7 PatchXpress 7000 automated electrophysiology assay (HEK cells stably expressing hSCN9A). The test is classed as cell-based. The conditions noted are these: voltage-clamped at V1/2 of inactivation, read-out: Nav1.7 EIC50. As for the experimental part:
The ability of the compounds of formula (I) to block the Nav1.7 (or SCN9A) channel was measured using the assays described below.
Human Embryonic Kidney (HEK) cells were transfected with an hSCN9A construct using lipofectamine reagent (Invitrogen), using standard techniques. Cells stably expressing the hSCN9A constructs were identified by their resistance to G-418 (400 μg/ml). Clones were screened for expression using the whole-cell voltage-clamp technique.
HEK cells stably transfected with hSCN9A were maintained in DMEM medium supplemented with 10% heat-inactivated fetal bovine serum and 400 μg/ml G-418 in an incubator at 37° C. with a humidified atmosphere of 10% CO2. For HTS, cells were harvested from flasks by trypsinization and replated in an appropriate multi-well plate (typically 96 or 384 wells/plate) such that confluence would be achieved within 24 hours of plating. For electrophysiological studies, cells were removed from the culture flask by brief trypsinization and re-plated at low density onto glass cover slips. Cells were typically used for electrophysiological experiments within 24 to 72 hours after plating.
Cover slips containing HEK cells expressing hSCN9A were placed in a bath on the stage of an inverted microscope and perfused (approximately 1 ml/minutes) with extracellular solution of the following composition: 138 mM NaCl, 2 mM CaCl2, 5.4 mM KCl, 1 mM MgCl2, 10 mM glucose, and 10 mM HEPES, pH 7.4, with NaOH. […] The osmolarity of the extracellular and intracellular solutions was 300 mOsm/kg and 295 mOsm/kg, respectively. All recordings were made at room temperature (22-24° C.) using AXOPATCH 200B amplifiers and PCLAMP software (Axon Instruments, Burlingame, Calif.).
HEK cells stably transfected with hSCN9A were viewed under Hoffman contrast optics and placed in front of an array of flow pipes emitting either control or compound-containing extracellular solutions. All compounds were dissolved in dimethyl sulfoxide to make 10 mM stock solutions, which were then diluted into extracellular solution to attain the final concentrations desired. […] The voltage-dependence of inactivation was determined by applying a series of depolarizing prepulses (8 sec long in 10 mV increments) from a negative holding potential. The voltage was then immediately stepped to 0 mV to assess the magnitude of the sodium current. Currents elicited at 0 mV were plotted as a function of prepulse potential to allow estimation of the voltage at which 50% of the channels were inactivated (midpoint of inactivation or V1/2). Compounds were tested for their ability to inhibit hSCN9A sodium channels by activating the channel with a 20 msec voltage step to 0 mV following an 8 second conditioning prepulse to the empirically determined V1/2. Compound effect (% inhibition) was determined by difference in current amplitude before and after application of test compounds. For ease of comparison, “estimated IC-50” (EIC50) values were calculated from single point electrophysiology data by the following equation, (tested concentration, uM)×(100-% inhibition/% inhibition). Inhibition values <20% and >80% were excluded from the calculation.
Electrophysiological assays were conducted with PatchXpress 7000 hardware and associated software (Molecular Devices Corp). All assay buffers and solutions were identical to those used in conventional whole-cell voltage clamp experiments described above. hSCN9A cells were grown as above to 50%-80% confluency and harvested by trypsinization. Trypsinized cells were washed and resuspended in extracellular buffer at a concentration of 1×10^6 cells/ml. The onboard liquid handling facility of the PatchXpress was used for dispensing cells and application of test compounds. Determination of the voltage midpoint of inactivation was as described for conventional whole-cell recordings. Cells were then voltage-clamped to the empirically determined V1/2 and current was activated by a 20 msec voltage step to 0 mV. […]
As for `CCc1cc(F)ccc1Oc1ccc(C(=O)NS(C)(=O)=O)cc1F` [Example 20, 4-(2-ethyl-4-fluorophenoxy)-3-fluoro-N-(methylsulfonyl)benzamide], the IC50 was 5400 nM. As for `CS(=O)(=O)NC(=O)c1cc(F)c(Oc2ccc(Cl)c(Cl)c2)cc1F` [Example 21, 4-(3,4-dichlorophenoxy)-2,5-difluoro-N-(methylsulfonyl)benzamide], the figure is 450 nM; as for `CCc1cc(F)ccc1Oc1ccc(C(=O)NS(C)(=O)=O)cc1C#N` [Example 22, 3-cyano-4-(2-ethyl-4-fluorophenoxy)-N-(methylsulfonyl)benzamide], 5200 nM.

For `CCS(=O)(=O)NC(=O)c1ccc(Oc2ccc(Cl)cc2)cc1` [Example 23, 4-(4-chlorophenoxy)-N-(ethylsulfonyl)benzamide], the IC50 came out at 3400 nM. With `CS(=O)(=O)NC(=O)c1ccc(Oc2ccc(Cl)cc2)cc1` [Example 24, 4-(4-chlorophenoxy)-N-(methylsulfonyl)benzamide], the IC50 turned out to be 5700 nM. With `CS(=O)(=O)NC(=O)c1ccc(Oc2ccc(C#N)c(C#N)c2)cc1` [Example 25, 4-(3,4-dicyanophenoxy)-N-(methylsulfonyl)benzamide], the IC50 was > 10000 nM. As for `O=C(NS(=O)(=O)C1CC1)c1ccc(Oc2ccc(Cl)cc2)cc1` [Example 26, 4-(4-chlorophenoxy)-N-(cyclopropylsulfonyl)benzamide], the figure is 430 nM; as for `CS(=O)(=O)NC(=O)c1ccc(Oc2ccc(Cl)c(Cl)c2)c(C(F)(F)F)c1` [Example 27, 4-(3,4-dichlorophenoxy)-N-(methylsulfonyl)-3-(trifluoromethyl)benzamide], 190 nM; as for `CS(=O)(=O)NC(=O)c1ccc(Oc2ccc(Cl)c(Cl)c2)cc1F` [Example 28, 4-(3,4-dichlorophenoxy)-2-fluoro-N-(methylsulfonyl)benzamide], 860 nM. In the case of `CS(=O)(=O)NC(=O)c1ccc(Oc2ccc(Cl)c(Cl)c2)c(C#N)c1` [Example 29, 3-cyano-4-(3,4-dichlorophenoxy)-N-(methylsulfonyl)benzamide], the IC50 stood at 950 nM.

`CS(=O)(=O)NC(=O)c1ccc(Oc2cccc(OC(F)(F)F)c2)cc1` [Example 30, N-(methylsulfonyl)-4-[3-(trifluoromethoxy)phenoxy]benzamide]: the IC50 was found to be 760 nM. Next, `CS(=O)(=O)NC(=O)c1c(F)cc(Oc2ccc(Cl)c(C(F)(F)F)c2)cc1F` [Example 31, 4-(4-chloro-3-(trifluoromethyl)phenoxy)-2,6-difluoro-N-(methylsulfonyl)benzamide]: 5700 nM. For the compound `CS(=O)(=O)NC(=O)c1c(F)cc(Oc2ccc(Cl)c(C(F)(F)F)c2)c(F)c1F` [Example 32, 4-(4-chloro-3-(trifluoromethyl)phenoxy)-2,3,6-trifluoro-N-(methylsulfonyl)benzamide], the IC50 is > 1000 nM. Next, `CS(=O)(=O)NC(=O)c1cc(F)c(Oc2ccc(C(F)(F)F)c(Cl)c2)cc1F` [Example 33, 4-(3-chloro-4-(trifluoromethyl)phenoxy)-2,5-difluoro-N-(methylsulfonyl)benzamide]: 500 nM; `CS(=O)(=O)NC(=O)c1ccc(Oc2ccc(Cl)c(Cl)c2)c(F)c1` [Example 34, 4-(3,4-dichlorophenoxy)-3-fluoro-N-(methylsulfonyl)benzamide]: 1500 nM; `CCc1cc(F)ccc1Oc1ccc(C(=O)NS(C)(=O)=O)cc1` [Example 35, 4-(2-ethyl-4-fluorophenoxy)-N-(methylsulfonyl)benzamide]: 11000 nM. As for `CS(=O)(=O)NC(=O)c1ccc(Oc2ccc(Cl)cc2Cl)cc1` [Example 38, 4-(2,4-dichlorophenoxy)-N-(methylsulfonyl)benzamide], the figure is > 10000 nM; as for `COc1cc(Oc2ccc(Cl)cc2OC(F)(F)F)ccc1C(=O)NS(C)(=O)=O` [Example 39, 4-[4-chloro-2-(trifluoromethoxy)phenoxy]-2-methoxy-N-(methylsulfonyl)benzamide], 9300 nM; as for `COc1cc(Cl)ccc1Oc1ccc(C(=O)NS(C)(=O)=O)c(OC)c1` [Example 40, 4-(4-chloro-2-methoxyphenoxy)-2-methoxy-N-(methylsulfonyl)benzamide], 25000 nM. As for `CS(=O)(=O)NC(=O)c1ccc(Oc2ccc(F)cc2)c(Cl)c1` [Example 41, 3-chloro-4-(4-fluorophenoxy)-N-(methylsulfonyl)benzamide], the IC50 worked out at 660 nM. `CS(=O)(=O)NC(=O)c1ccc(Oc2ccc(Cl)c(C(F)(F)F)c2)c(F)c1` [Example 42, 4-[4-chloro-3-(trifluoromethyl)phenoxy]-3-fluoro-N-(methylsulfonyl)benzamide]: the IC50 was found to be 590 nM. For the compound `CS(=O)(=O)NC(=O)c1ccc(Oc2ccc(Cl)c(C(F)(F)F)c2)cc1Cl` [Example 43, 2-chloro-4-[4-chloro-3-(trifluoromethyl)phenoxy]-N-(methylsulfonyl)benzamide], the IC50 worked out at 5800 nM. Next, `CS(=O)(=O)NC(=O)c1ccc(Oc2ccc(Cl)c(C(F)(F)F)c2)c(Cl)c1` [Example 44, 3-chloro-4-[4-chloro-3-(trifluoromethyl)phenoxy]-N-(methylsulfonyl)benzamide]: 2000 nM; `CS(=O)(=O)NC(=O)c1cc(F)c(Oc2ccc(Cl)c(C(F)(F)F)c2)c(F)c1` [Example 45, 4-(4-chloro-3-(trifluoromethyl)phenoxy)-3,5-difluoro-N-(methylsulfonyl)benzamide]: 1100 nM; `COc1cc(Cl)ccc1Oc1cc(F)c(C(=O)NS(C)(=O)=O)cc1F` [Example 47, 4-(4-chloro-2-methoxyphenoxy)-2,5-difluoro-N-(methylsulfonyl)benzamide]: 4000 nM. As for `CS(=O)(=O)NC(=O)c1cc(Cl)c(Oc2ccc(Cl)c(OC(F)F)c2)cc1F` [Example 48, 5-chloro-4-[4-chloro-3-(difluoromethoxy)phenoxy]-2-fluoro-N-(methylsulfonyl)benzamide], the figure is 210 nM. Next, `CS(=O)(=O)NC(=O)c1cc(F)c(Oc2ccc(Cl)c(OC(F)F)c2)cc1F` [Example 49, 4-[4-chloro-3-(difluoromethoxy)phenoxy]-2,5-difluoro-N-(methylsulfonyl)benzamide]: 520 nM; `CS(=O)(=O)NC(=O)c1ccc(Oc2ccc(C(F)(F)F)cc2-c2ccnnc2)cc1` [Example 50, N-(methylsulfonyl)-4-(2-(pyridazin-4-yl)-4-(trifluoromethyl)phenoxy)benzamide]: > 3000 nM. For `CS(=O)(=O)NC(=O)c1cc(Cl)c(Oc2ccc(OC(F)F)c(Cl)c2)cc1F` [Example 51, 5-chloro-4-[3-chloro-4-(difluoromethoxy)phenoxy]-2-fluoro-N-(methylsulfonyl)benzamide], the IC50 stood at 260 nM. Regarding `COc1cc(Cl)ccc1Oc1cc(F)c(C(=O)NS(C)(=O)=O)cc1Cl` [Example 52, 5-chloro-4-(4-chloro-2-methoxyphenoxy)-2-fluoro-N-(methylsulfonyl)benzamide], the IC50 is 470 nM. Next, `CS(=O)(=O)NC(=O)c1cc(Cl)c(Oc2ccc(Cl)cc2OC(F)(F)F)cc1F` [Example 53, 5-chloro-4-[4-chloro-2-(trifluoromethoxy)phenoxy]-2-fluoro-N-(methylsulfonyl)benzamide]: 63 nM; `COc1ccc(Cl)cc1Oc1cc(F)c(C(=O)NS(C)(=O)=O)cc1Cl` [Example 54, 5-chloro-4-(5-chloro-2-methoxyphenoxy)-2-fluoro-N-(methylsulfonyl)benzamide]: 2300 nM. As for `CS(=O)(=O)NC(=O)c1cc(F)c(Oc2ccc(OC(F)(F)F)c(Cl)c2)cc1F` [Example 55, 4-(3-chloro-4-(trifluoromethoxy)phenoxy)-2,5-difluoro-N-(methylsulfonyl)benzamide], the figure is 340 nM.
